Measured values: article PMC8453745, “Human Mass Balance and Metabolite Profiling of [^14C]‐Pamiparib, a Poly (ADP‐Ribose) Polymerase Inhibitor, in Patients With Advanced Cancer” (Clinical Pharmacology in Drug Development, 2021)

Assay: safety and tolerability in patients
Assay type: in vivo, human
Protocol: Safety and tolerability were evaluated throughout the study, and AEs were assessed from the time of obtaining informed consent to discharge from the study and follow‐up visit or early withdrawal. Scheduled safety assessments of 12‐lead electrocardiogram, physical examination, vital signs, and clinical laboratory investigations (clinical chemistry, hematology, serology, and urinalysis) occurred before administration of the study drug and at discharge and follow‐up visit.

C[C@]12CCCN1CC1=NNC(=O)c3cc(F)cc4[nH]c2c1c34 [Pamiparib]
patients with TEAEs (4 patients): 100%
severity of all TEAEs (4 patients): mild (CTCAE grade 1)
TEAEs considered related to [^14C]‐pamiparib, percent of events (in 2 patients): 31.3%
TEAEs considered unrelated to [^14C]‐pamiparib, percent of events (in 4 patients): 68.8%
TEAEs reported (events) (in 4 patients): 16
tolerability (single dose 60 mg [^14C]‐pamiparib, 4 patients): well tolerated
deaths or serious AEs (single dose 60 mg, 4 patients): no deaths or serious AEs
